Values joined by “and” are separate entries in the source; they are usually repeats but may differ in a detail not shown here. Equal entries are not always repeated. Where two headings read alike, the source gives them in different places.
Key:
[1] = parameters: method as in Yang et al., 2017; settings: ref Yang et al., 2017, cited from earlier work; for form excreted: material conservation within 24 h after oral administration of SZ-A; for oral absolute bioavailability / pharmacokinetic profile versus dose: rats; for oral absolute bioavailability: after oral administration of SZ-A; for pharmacokinetic profile versus dose: oral SZ-A 20–500 mg/kg
major CYP450s in HLMs = assay: Effect on activity of the major CYP450s in human liver microsomes (all isoforms together); settings: final concentration SZ-A 8.899 μg/mL (equivalent to DNJ 20 μM), FA 5 μM, DAB 8 μM
[2] = Pharmacokinetic study: plasma levels after oral SZ-A in SD rats (LC-MS/MS, DAS 3.2.8); assay type: in vivo; settings: plasma, plasma; for Tmax / AUC(0-inf) / AUC(0-t) / Cmax / half-life / MRT last / MRT inf: both sexes, rat; for Tmax: SD, po; for AUC(0-inf) / AUC(0-t) / Cmax / half-life / CLz / VRT(0-t) / VRT(0-∞) / Vz: n=8; for MRT last: n=8, read-out: MRT(0-t); for MRT inf: n=8, read-out: MRT(0-∞)
Method: Twenty-four SD rats were fasted for 12 h (free access to water) and randomly classified into three groups (n = 8; half male and female) that received different doses of SZ-A solution (25, 50, and 200 mg/kg) via oral administration. After completion of dose administration, blood samples (0.3 mL) were collected through an indwelling catheter from the jugular vein at predetermined time points (5, 15, 30, and 45 min, 1, 2, 4, 8, and 24 h). The blood was centrifuged at 5,000 rpm for 10 min to separate the plasma. All plasma samples were stored frozen at −80°C until liquid chromatography coupled to tandem mass spectrometry (LC-MS/MS) analysis (AB SCIEX Triple Quad™ 4,500 mass spectrometer, Applied Biosystems Inc., United States).
Primary pharmacokinetic parameters, including Cmax, Tmax, area under the plasma concentration-time curve (AUC), t1/2, clearance rate, and the apparent volume of distribution, were calculated using DAS 3.2.8 (Bio Guider Co., Shanghai, China).

[3] = Identification of metabolites in HLMs/RLMs and rat plasma (Q-Extractive high-resolution MS); assay type: in vitro ADME, human; settings: HLMs/RLMs and rat plasma reaction system
Method: Furthermore, 5 μL of the supernatant was collected for LC-MS/MS analysis. The LC-MS/MS conditions were as follows: chromatographic column (XBridge™ Amide, 3.5 µm, 4.6 × 150 mm); mobile phase, water (0.1% ammonia) and acetonitrile, other conditions are the same as those in CYP450s inhibition study, with the following scan parameters: resolution, 70,000; AGC target, 3,000,000; maximum IT, 200 ms; and scan range, 50–600 m/z.

[4] = system: CYP450s in RLMs (other isoenzymes); assay: Effect on activity of rat liver microsome isoenzymes other than CYP2C11; settings: SZ-A 8.899 μg/mL, DNJ 20 μM, FA 5 μM, DAB 8 μM
rat CYP2C11 = target: T1, rat CYP2C11 (Rattus norvegicus, UniProt P08683); assay: Inhibition of CYP450s in rat liver microsomes, probe mephenytoin; settings: RLMs; SZ-A 8.899 μg/mL, DNJ 20 μM, FA 5 μM, DAB 8 μM
T1 sequence (P08683 1-500): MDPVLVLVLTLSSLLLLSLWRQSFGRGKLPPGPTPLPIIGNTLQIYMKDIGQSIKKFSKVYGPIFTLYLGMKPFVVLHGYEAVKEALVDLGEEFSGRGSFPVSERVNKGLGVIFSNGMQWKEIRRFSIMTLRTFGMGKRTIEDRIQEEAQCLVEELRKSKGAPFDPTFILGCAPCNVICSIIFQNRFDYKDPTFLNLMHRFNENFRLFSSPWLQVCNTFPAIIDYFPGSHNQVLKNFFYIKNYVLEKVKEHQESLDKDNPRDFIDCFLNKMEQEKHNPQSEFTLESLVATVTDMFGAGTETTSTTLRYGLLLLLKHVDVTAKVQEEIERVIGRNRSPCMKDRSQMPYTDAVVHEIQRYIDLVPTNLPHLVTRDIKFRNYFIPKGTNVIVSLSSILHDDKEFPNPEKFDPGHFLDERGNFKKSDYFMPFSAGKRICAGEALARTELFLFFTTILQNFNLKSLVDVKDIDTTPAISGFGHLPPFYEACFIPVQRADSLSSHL

[5] = Tissue distribution after single oral SZ-A (20 mg/kg) in ICR mice; assay type: in vivo
Method: Twenty SD rats were randomly classified into four groups corresponding to four-time points (5 and 30 min, 4 and 12 h) (n = 20; 5 animals per time point) that received SZ-A solution (40 mg/kg) via oral administration. After the completion of dose administration, plasma and tissue samples (derived from the heart, liver, spleen, lung, kidney, aortic blood vessels, brown adipose tissue, subcutaneous adipose tissue, abdominal adipose tissue, muscle (thigh skeletal muscle), pancreas, and brain) were collected at predetermined time points. Twenty-eight ICR mice were randomly classified into four groups (n = 7 per group) corresponding to four-time points (5 and 30 min, 4 and 12 h) that received SZ-A solution (20 mg/kg) via oral administration. After the completion of dose administration, tissue samples (derived from the heart, liver, spleen, lung, kidney, aortic blood vessels, brown adipose tissue, abdominal adipose tissue, muscle (thigh skeletal muscle), pancreas, and brain) were collected at predetermined time points.
Collected tissue samples were washed with normal saline. The surface moisture was removed by blotting gently with filter paper, and the weight was recorded. After adding an appropriate amount of normal saline, these tissue samples were ground into homogenates using a cryogenic grinder (JX-CL, Shanghai Jingxin, Shanghai, China). The obtained homogenates were stored at −80°C until LC-MS/MS analysis.

[6] = 25 mg/kg, oral SZ-A 25 mg/kg, n=8, read-out: Tmax
[7] = 50 mg/kg, oral SZ-A 50 mg/kg, n=8, read-out: Tmax
[8] = 200 mg/kg, oral SZ-A 200 mg/kg, n=8, read-out: Tmax
[9] = 200 mg/kg, oral SZ-A 25, 50 and 200 mg/kg, read-out: time to maximum plasma concentration (Tmax), all dose groups

For `OC[C@H]1NCC[C@@H](O)[C@@H]1O` [FA, fagomine], the form excreted [1] is given as “mainly excreted in their original forms”, the oral absolute bioavailability [1] is given as 77.50% and > 70% and the “pharmacokinetic profile versus dose” value [1] is given as “non-linear pharmacokinetics”. For the same compound, the “effect on the major CYP450s in HLMs, either inhibition or activation” value (major CYP450s in HLMs) was “no significant effect”, the Tmax [2, 6] was 0.5 ± 0.3 h and the Tmax [2, 7] was 0.56 ± 0.37 h. The Tmax [2, 8] was 0.88 ± 0.27 h, the Tmax [2, 9] was at most 0.88 h and the AUC(0-inf) ([2]; oral SZ-A 25 mg/kg) was 1040 ± 356 ng·h/mL. For the same compound, the AUC(0-t) ([2]; oral SZ-A 25 mg/kg) was 1040 ± 356 ng·h/mL, the Cmax ([2]; oral SZ-A 25 mg/kg) was 616 ± 168 ng/mL and the half-life ([2]; oral SZ-A 25 mg/kg) was 1.16 ± 0.31 h. It also gave an MRT last ([2]; oral SZ-A 25 mg/kg) of 1.55 ± 0.23 h, an MRT inf ([2]; oral SZ-A 25 mg/kg) of 1.55 ± 0.23 h and an AUC(0-inf) ([2]; oral SZ-A 50 mg/kg) of 2370 ± 634 ng·h/mL. The AUC(0-t) ([2]; oral SZ-A 50 mg/kg) was 2370 ± 634 ng·h/mL, the Cmax ([2]; oral SZ-A 50 mg/kg) was 1250 ± 506 ng/mL and the half-life ([2]; oral SZ-A 50 mg/kg) was 1.19 ± 0.03 h. For the same compound, the MRT last ([2]; oral SZ-A 50 mg/kg) was 1.67 ± 0.61 h, the MRT inf ([2]; oral SZ-A 50 mg/kg) was 1.67 ± 0.61 h and the AUC(0-inf) ([2]; oral SZ-A 200 mg/kg) was 6010 ± 1650 ng·h/mL. It also gave an AUC(0-t) ([2]; oral SZ-A 200 mg/kg) of 6010 ± 1650 ng·h/mL, a Cmax ([2]; oral SZ-A 200 mg/kg) of 2580 ± 1250 ng/mL and a half-life ([2]; oral SZ-A 200 mg/kg) of 1.08 ± 0.04 h. The MRT last ([2]; oral SZ-A 200 mg/kg) was 1.97 ± 0.22 h, the MRT inf ([2]; oral SZ-A 200 mg/kg) was 1.97 ± 0.22 h and the CLz ([2]; oral SZ-A 25 mg/kg) was 78.5 ± 24.3 mL/min/kg. The “VRT(0-t)” value ([2]; oral SZ-A 25 mg/kg) was 1.46±0.55 h^2, the “VRT(0-∞)” value ([2]; oral SZ-A 25 mg/kg) was 1.46±0.55 h^2 and the Vz ([2]; oral SZ-A 25 mg/kg) was 7.62 ± 2.89 L/kg. The CLz ([2]; oral SZ-A 50 mg/kg) was 66.7 ± 17.3 mL/min/kg, the “VRT(0-t)” value ([2]; oral SZ-A 50 mg/kg) was 1.90±2.02 h^2 and the “VRT(0-∞)” value ([2]; oral SZ-A 50 mg/kg) was 1.91±2.02 h^2. For the same compound, the Vz ([2]; oral SZ-A 50 mg/kg) was 6.88 ± 1.85 L/kg, the CLz ([2]; oral SZ-A 200 mg/kg) was 105 ± 26.7 mL/min/kg and the “VRT(0-t)” value ([2]; oral SZ-A 200 mg/kg) was 3.08±0.76 h^2. For the same compound, the “VRT(0-∞)” value ([2]; oral SZ-A 200 mg/kg) was 3.08±0.76 h^2, the Vz ([2]; oral SZ-A 200 mg/kg) was 9.94 ± 2.86 L/kg and the metabolites found [3] was “only trace oxidation products”. The “effect on other isoenzymes in RLMs” value [4] was “no obvious effect”, the “effect on rat CYP2C11” value (rat CYP2C11) was “mild activation effect” and the “tissues with the highest concentrations” value [5] was “kidney, followed by the liver”.

In the case of `OC[C@H]1NC[C@@H](O)[C@@H]1O` [DAB, 1,4-dideoxy-1,4-imino-D-arabinitol], the form excreted [1] is listed as “mainly excreted in their original forms”, the oral absolute bioavailability [1] is listed as 78.23% and > 70% and the “pharmacokinetic profile versus dose” value [1] is listed as “non-linear pharmacokinetics”. For the same compound, the “effect on the major CYP450s in HLMs, either inhibition or activation” value (major CYP450s in HLMs) was “no significant effect”, the Tmax [2, 6] was 0.31 ± 0.12 h and the Tmax [2, 7] was 0.44 ± 0.35 h. The Tmax [2, 8] was 0.75 ± 0.3 h, the Tmax [2, 9] was at most 0.88 h and the AUC(0-inf) ([2]; oral SZ-A 25 mg/kg) was 1360 ± 299 ng·h/mL. It also gave an AUC(0-t) ([2]; oral SZ-A 25 mg/kg) of 1360 ± 299 ng·h/mL, a Cmax ([2]; oral SZ-A 25 mg/kg) of 1050 ± 141 ng/mL and a half-life ([2]; oral SZ-A 25 mg/kg) of 1.16 ± 0.31 h. For the same compound, the MRT last ([2]; oral SZ-A 25 mg/kg) was 1.26 ± 0.17 h, the MRT inf ([2]; oral SZ-A 25 mg/kg) was 1.26 ± 0.17 h and the AUC(0-inf) ([2]; oral SZ-A 50 mg/kg) was 2660 ± 367 ng·h/mL. It also gave an AUC(0-t) ([2]; oral SZ-A 50 mg/kg) of 2660 ± 367 ng·h/mL, a Cmax ([2]; oral SZ-A 50 mg/kg) of 1770 ± 632 ng/mL and a half-life ([2]; oral SZ-A 50 mg/kg) of 1.2 ± 0.03 h. The MRT last ([2]; oral SZ-A 50 mg/kg) was 1.45 ± 0.56 h, the MRT inf ([2]; oral SZ-A 50 mg/kg) was 1.45 ± 0.56 h and the AUC(0-inf) ([2]; oral SZ-A 200 mg/kg) was 7630 ± 2040 ng·h/mL. The AUC(0-t) ([2]; oral SZ-A 200 mg/kg) was 7630 ± 2040 ng·h/mL, the Cmax ([2]; oral SZ-A 200 mg/kg) was 3640 ± 1370 ng/mL and the half-life ([2]; oral SZ-A 200 mg/kg) was 1.08 ± 0.04 h. The MRT last ([2]; oral SZ-A 200 mg/kg) was 1.6 ± 0.26 h, the MRT inf ([2]; oral SZ-A 200 mg/kg) was 1.6 ± 0.26 h and the CLz ([2]; oral SZ-A 25 mg/kg) was 45.3 ± 11 mL/min/kg. For the same compound, the “VRT(0-t)” value ([2]; oral SZ-A 25 mg/kg) was 1.25±0.51 h^2, the “VRT(0-∞)” value ([2]; oral SZ-A 25 mg/kg) was 1.25±0.51 h^2 and the Vz ([2]; oral SZ-A 25 mg/kg) was 4.47 ± 1.53 L/kg. The CLz ([2]; oral SZ-A 50 mg/kg) was 45.2 ± 6.17 mL/min/kg, the “VRT(0-t)” value ([2]; oral SZ-A 50 mg/kg) was 1.83±2.07 h^2 and the “VRT(0-∞)” value ([2]; oral SZ-A 50 mg/kg) was 1.83±2.07 h^2. For the same compound, the Vz ([2]; oral SZ-A 50 mg/kg) was 4.70 ± 0.65 L/kg, the CLz ([2]; oral SZ-A 200 mg/kg) was 65.7 ± 16.7 mL/min/kg and the “VRT(0-t)” value ([2]; oral SZ-A 200 mg/kg) was 1.92±0.81 h^2. The “VRT(0-∞)” value ([2]; oral SZ-A 200 mg/kg) was 1.92±0.81 h^2, the Vz ([2]; oral SZ-A 200 mg/kg) was 6.20 ± 1.82 L/kg and the metabolites found [3] was “no detectable phase I and phase II metabolites”. The “effect on other isoenzymes in RLMs” value [4] was “no obvious effect”, the “effect on rat CYP2C11” value (rat CYP2C11) was “mild activation effect” and the “distribution in aortic vessels compared with other tissues” value [5] was “lower than that in other tissues”. The “tissues with the highest concentrations” value [5] was “kidney, followed by the liver”.
